{"source": "patent US7033999B2", "about": "“Nitrosated and nitrosylated heme proteins” (Brigham and Women's Hospital, priority 1991, dated 2006)", "key": {"hemoglobin": {"molecular_target": "hemoglobin (Bos taurus, UniProt P01966+P02070)", "sequence (P01966 2-142)": "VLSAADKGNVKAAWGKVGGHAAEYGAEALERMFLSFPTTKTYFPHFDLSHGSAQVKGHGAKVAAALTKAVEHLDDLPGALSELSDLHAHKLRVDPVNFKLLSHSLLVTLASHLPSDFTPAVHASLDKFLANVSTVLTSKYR", "sequence (P02070 whole entry)": "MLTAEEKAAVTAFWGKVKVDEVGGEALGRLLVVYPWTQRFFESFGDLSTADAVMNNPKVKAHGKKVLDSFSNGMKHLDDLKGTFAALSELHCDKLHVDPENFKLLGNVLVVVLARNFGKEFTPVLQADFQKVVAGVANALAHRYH", "conditions": "for reaction at the redox metal (iron-binding site) of hemoglobin: UV spectrum, SNOAC over 15 minutes"}, "gel-filtered platelets [1]": {"system": "gel-filtered platelets", "test": "Platelet aggregation (nephelometric aggregometry)", "type": "cell-based, human", "procedure": "Venous blood, anticoagulated with 1-mM trisodium citrate, was obtained from volunteers who had not consumed acetylsalicylic acid for at least ten days. Platelet-rich plasma (PRP) was prepared by centrifugation at 150 g for ten minutes at 25° C. Platelet counts were determined with a Coulter counter (model ZM; Coulter Electronics, Hialeah, Fla.).\nPlatelets were gel-filtered on a 4× 10 cm column of Sepharose 2B in Tyrode's Hepes buffer as described previously (Hawiger et al., Nature 2831:195–198 (1980), herein incorporated by reference). Platelets were typically suspended at a concentration of 1.5×10^8/ml and were used within 30 minutes of preparation. Platelet aggregation was monitored using a standard nephelometric technique (Born, et al., J. Physiol. 168:178–195 (1963), herein incorporated by reference), in which 0.3-ml aliquots of gel-filtered platelets were incubated at 37° C. and stirred at 1000 rpm in a PAP-4 aggregometer (Biodata, Hatboro, Pa.). Gel-filtered platelets were preincubated with t-PA or S—NO-t-PA for up to 45 minutes and aggregations induced with 5 μM ADP or 0.025 U/ml thrombin.\nAggregations were quantified by measuring the maximal rate or extent of light transmittance and expressed as a normalized value relative to control aggregations.\nThe effect of S-nitroso-BSA on platelet aggregation was studied, using a gel-filtered platelet preparation, as previously described (Hawiger et al., Nature 2831:195 (1980)) and suspended at 150,000 platelets/ul in HEPES buffer, pH 7.35. S—NO-BSA was incubated with platelets for ten minutes at 37° C. in a PAP-4 aggregometer (BioData, Hatboro, Pa.), after which aggregations were induced with 5 μM ADP. Aggregations were quantified by measuring the extent of change of light transmittance and expressed as a normalized value relative to control aggregations."}, "[2]": {"system": "endothelium-denuded rabbit aortic strips", "test": "Vessel relaxation bioassay", "type": "cell-based", "procedure": "New Zealand White female rabbits weighing 3–4 kg were anesthetized with 30 mg/kg IV sodium pentobarbital. Descending thoracic aortae were isolated and placed immediately in a cold physiologic salt solution (Kreb's) (mM): NaCl, 118; CKl, 4.7; CaCl2, 2.5; MgSO4, 1.2; KH2PO4, 1.2; NaHCO3, 12.5; and D-glucose, 11.0. The vessels were cleaned of adherent connective tissue, and the endothelium removed by gentle rubbing with a cotton tipped applicator inserted into the lumen, after which the vessel was cut into 5 mm rings. The rings were mounted on stirrups and connected to transducers (model FT03C Grass Instruments, Quincy, Mass.) by which changes in isometric tension were recorded.\nSamples were added to a standard bioassay in which vessel rings were suspended in glass chambers containing seven mil of oxygenated Kreb's buffer, in a standard bioassay (Cook et al., Am. J. Physiol. 28:H804 (1989), herein incorporated by reference). Sustained contractions, to 2 gm tension, were induced with 1 μM epinephrine, after which the effects of t-PA and S—NO-t-PA were tested. In certain experiments the guanylate cyclase inhibitor, methylene blue, was preincubated with vessel rings for 15 minutes prior to initiation of contractions.\nThe vasodilatory actions of S-nitroso-BSA were examined in a standard bioassay containing endothelium-denuded rabbit aortic strips in Kreb's buffer, pH 7.5, at 37°, as described in Example 6.\nIn vessel experiments, relaxations to S—NO-BSA are expressed as-percent of tone induced by 1.0 μM norepinephrine."}, "gel-filtered platelets [3]": {"system": "gel-filtered platelets", "test": "Platelet aggregation (nephelometric aggregometry)", "type": "cell-based, human", "remark": "listed apart in the source"}, "[4]": {"test": "Canine model of subtotal coronary artery occlusion", "type": "in vivo, dog", "description": "(§1) These extremely potent, but reversible anti-platelet properties in vivo are unmatched by classic nitrates. […] As shown in FIGS. 12–14, the constellation of anti-platelet effect, long duration of action, and increased coronary blood flow, is unmatched by other nitroso-compounds. Thus, S-nitroso-proteins have very unique hemodynamic and bioactive profiles."}, "[5]": {"test": "Infusion into anesthetized dogs (blood pressure, coronary flow)", "type": "in vivo, dog", "description": "as §1"}, "trachea rings": {"system": "trachea rings", "test": "Airway smooth muscle relaxation, trachea rings", "type": "cell-based, guinea pig", "description": "(§2) Male Hartley guinea pigs (500–600 g) were anesthetized by inhalation of enflurane to achieve a surgical plane of anesthesia. The trachea were excised and placed in Kreb's-Hanseleit buffer (mM); NaCl 118, KCl 5.4, NaH2PO4 1.01, glucose 11.1, NaHCO3 25.0, MgSO4 0.69, CaCl 2.32, pH 7.4. The airways were then dissected free from surrounding fat and connective tissue and cut into rings 2–4 mm in diameter. The trachea rings were placed in sterile Medium 199 containing 1% antibiotic/antimycotic mixture in an atmosphere of 5% CO2, […], 55% N2 and kept for up to 48 hours in tissue culture. The experiments were also performed on human airways isolated by the same method.\n(§3) Trachea rings were mounted on stirrups and connected to transducers (model FTO3C Grass), by which changes in isometric tension were measured. Rings were then suspended in 10 cc of oxygenated (95% O2, 5% CO2) buffer. Airway rings were equilibrated for 60 minutes under a load of 1 gm and then primed twice by exposure to 100 μM methacholine. The rings were contracted with various agonists at concentrations determined to generate 50% (±16% S.D.) of maximum tone, after which the effect of S—NO-BSA was assessed. In selected experiments, relaxation responses were determined in the presence of hemoglobin, or after rings had been preexposed to methylene blue for 30 minutes."}, "[6]": {"system": "RFL-6 lung fibroblasts containing a soluble guanylate cyclase", "test": "Cyclic GMP in cultured RFL-6 lung fibroblasts", "type": "cell-based", "procedure": "Consonant with the mechanism of other nitro(so)-vasodilators (Ignarro, L. J. Circ. Res. 65:1 (1989)), relaxations were abolished by methylene blue, an inhibitor of guanylate cyclase (FIG. 11a). This mechanism was confirmed by showing that S-nitroso-BSA (18 μM) induces 3.5-fold increases (n=2) in cyclic GMP over basal levels relative to BSA alone in cultured RFL-6 lung fibroblasts containing a soluble guanylate cyclase exquisitely sensitive to NO (Forstermann et al., Mol. Pharmacol. 38:7 (1990)). Stimulation of guanylate cyclase by S-nitroso-BSA was attenuated by methylene blue."}, "[7]": {"test": "Stability of S-nitroso-albumin in the presence of oxygen and redox metals", "type": "physicochemical", "conditions": "Cu^+, Fe^2+, or Cu^2+ (50 μM) or defuroxamine or EDTA (10 μM)", "procedure": "The stability of S-nitroso-albumin in the presence of oxygen and redox metals was assessed.\nIn addition, S-nitroso-protein stability was assessed in the presence of various redox metals or chelating agents."}, "human airways [8]": {"system": "human airways", "test": "Bronchodilatory effect in human airways contracted with methacholine", "type": "cell-based", "description": "as §2, §3\n(§4) The effect of guanylate cyclase inhibitors upon S-nitroso-protein-induced airway relaxation and cGMP increase was assessed, using the previously described bioassay and cyclic nucleotide assay procedures. The bronchodilatory effect of S-nitroso-albumin was examined in human airways (5–12 mm outer diameter)."}, "human airways [9]": {"system": "human airways", "test": "Airway cGMP levels", "type": "cell-based", "conditions": "100 μM", "procedure": "as §4"}, "[10]": {"test": "Hemoglobin-oxygen association curve", "conditions": "S-nitrosylation of hemoglobin", "description": "Thus, the reaction between S-nitrosothiols and hemoglobin not only eliminates the inhibition of oxygen binding which occurs from the reaction with uncharged NO and generation of methemoglobin, but it actually increases oxygen binding."}, "[11]": {"conditions": "clinically used comparator; cited from earlier work"}, "[12]": {"conditions": "acidified NaNO2, NO gas or EDRF from endothelial cells"}}, "data": [{"molecule": "[N]=O", "note": "[NO, nitric oxide, reference compound]", "values": [{"measurement": "reaction at the redox metal (iron-binding site) of hemoglobin", "setting": "hemoglobin", "value": "reacted instantaneously"}, {"measurement": "normalized extent of aggregation", "setting": "gel-filtered platelets [1]; NO generated from NaNO2 (150 nM), n=5", "value": "0.98±0.11"}, {"measurement": "effect on the extent of platelet aggregation", "setting": "gel-filtered platelets [1]; NOx generated from NaNO2", "value": "no significant effect"}, {"measurement": "% Relaxation", "setting": "[2]; 150 nM, contraction with 1 μM epinephrine, mean ±S.D., n=4", "value": "1.0 ± 1.7", "unit": "%"}]}, {"molecule": "O=N[O-].[Na+]", "note": "[NaNO2, Sodium nitrite, reference compound]", "values": [{"measurement": "effect on platelet aggregation (sentence negated: neither ... had)", "setting": "gel-filtered platelets [3]; concentrations up to 15 μM", "value": "any significant effect"}, {"measurement": "effect on vessel tone (sentence negated: neither ... had)", "setting": "[2]; concentrations up to 15 μM", "value": "any significant effect"}]}, {"molecule": "CC(=O)N[C@@H](CSN=O)C(=O)O", "note": "[SNOAC, S-nitroso-N-acetylcysteine]", "values": [{"measurement": "reaction at the redox metal (iron-binding site) of hemoglobin", "setting": "hemoglobin", "value": "no reaction"}]}, {"molecule": "NO-BSA: BSA loaded with NO at a ratio of 20:1 in 0.5 N HCl (Example 14)", "values": [{"measurement": "vessel relaxation with increasing concentrations of NO loaded", "setting": "[2]; BSA loaded with NO as in Example 14", "value": "increase in vessel relaxation"}]}, {"molecule": "S-nitroso-BSA: S-nitrosylated bovine serum albumin", "values": [{"measurement": "bleeding times", "setting": "[4]", "value": "significantly prolonged"}, {"measurement": "platelet-dependent cyclic thrombus formation", "setting": "[4]", "value": "inhibited"}, {"measurement": "platelet inhibitory effect in platelet-rich plasma and whole blood", "setting": "gel-filtered platelets [3]; 1.4 μM, impedance aggregometry for whole blood", "value": "confirmed"}, {"measurement": "platelet inhibitory potency by method of synthesis", "setting": "gel-filtered platelets [1]; [12]", "value": "essentially equipotent"}, {"measurement": "blood pressure", "setting": "[5]", "value": "prolonged decreases in blood pressure"}, {"measurement": "coronary flow", "setting": "[5]", "value": "increased coronary flow"}, {"measurement": "relaxation of airway smooth muscle", "setting": "trachea rings; 0.01 μM", "value": 50, "unit": "%"}, {"measurement": "relaxation of airway smooth muscle", "setting": "trachea rings; 10 μM", "value": "over 75%"}, {"measurement": "increases in cyclic GMP over basal levels relative to BSA alone", "setting": "[6]; 18 μM, n=2", "value": 3.5, "unit": "fold"}, {"measurement": "stimulation of guanylate cyclase in presence of methylene blue", "setting": "[6]; methylene blue", "value": "attenuated"}, {"measurement": "vasorelaxant potency by method of synthesis", "setting": "[2]; [12]", "value": "essentially equipotent"}, {"measurement": "character of relaxation response", "setting": "[2]; compared with EDRF, NO, low molecular weight S-nitrosothiols", "value": "less rapid, but much more persistent, relaxation response"}]}, {"molecule": "S-nitroso-albumin: S-nitrosylated albumin used in Examples 17 and 18; likely the same as S-nitroso-BSA", "values": [{"measurement": "decomposition in presence of redox metals or chelating agents", "setting": "[7]", "value": "resistant to decomposition"}, {"measurement": "effect of hemoglobin on airway relaxation", "setting": "human airways [8]; hemoglobin (100 μM)", "value": "little effect"}, {"measurement": "airway relaxation in presence of methylene blue or LY83583", "setting": "human airways [8]; methylene blue (10^−4) or LY83583 (5×10^−5)", "value": "not significantly inhibited"}, {"measurement": "IC50", "setting": "human airways [8]; rings contracted with methacholine (7 μM), read-out: IC50 of airway relaxation", "value": 22, "unit": "µM"}, {"measurement": "airway cGMP levels", "setting": "human airways [9]", "value": "increases over control"}]}, {"molecule": "S-nitroso-hemoglobin: derived from the nitrosylation of hemoglobin", "values": [{"measurement": "hemoglobin-oxygen association curve", "setting": "[10]", "value": "leftward shift"}, {"measurement": "formation of methemoglobin", "setting": "hemoglobin", "value": "does not result in the formation of methemoglobin"}]}, {"molecule": "nitroprusside", "values": [{"measurement": "effect on coronary flow", "setting": "[11]", "value": "deleterious effects on coronary flow"}]}]}
